Laboratory results reported in ChEMBL document CHEMBL5247607, “Design, synthesis and biological evaluation of a new series of arylidene indanones as small molecules for targeted therapy of non-small cell lung carcinoma and prostate cancer” (Eur J Med Chem, 2022).
Active and inactive are the calls of the source. No cut-off for these calls is given here.

How the values were obtained:
[1] = Cytotoxicity against human CCD 19Lu cells assessed as inhibition of cell growth incubated for 24 hrs by MTT assay; format: toxicity, cell-based
[2] = molecular target: Procathepsin L (Homo sapiens) (UniProt P07711); experiment: Inhibition of cathepsin L (unknown origin) at 100 uM
[3] = Cytotoxicity against human hTERT-HPNE cells assessed as inhibition of cell growth incubated for 24 hrs by MTT assay; format: toxicity, cell-based
[4] = test system: PANC-1; experiment: Cytotoxicity against human PANC-1 cells assessed as inhibition of cell growth incubated for 24 hrs by MTT assay; format: functional, cell-based; conditions: PANC-1, 24 h
[5] = test system: A549; experiment: Cytotoxicity against human A549 cells assessed as inhibition of cell growth incubated for 24 hrs by MTT assay; format: functional, cell-based; conditions: A549, 24 h
[6] = Selectivity index, ratio of IC50 for cytotoxicity against human CCD 19Lu cells to IC50 for cytotoxicity against human A549 cells; format: toxicity, cell-based; conditions: CCD 19Lu cells versus A549 cells, read-out: Ratio IC50
[7] = molecular target: Cathepsin D (Homo sapiens) (UniProt P07339); experiment: Inhibition of cathepsin D (unknown origin) at 100 uM
[8] = Selectivity index, ratio of IC50 for cytotoxicity against human hTERT-HPNE cells to IC50 for cytotoxicity against human PANC-1 cells; format: toxicity, cell-based; conditions: hTERT-HPNE cells versus PANC-1 cells, read-out: Ratio IC50
[9] = molecular target: Procathepsin L (Homo sapiens) (UniProt P07711); experiment: Inhibition of cathepsin L (unknown origin) at 100 uM relative to control
[10] = molecular target: Cathepsin D (Homo sapiens) (UniProt P07339); experiment: Inhibition of cathepsin D (unknown origin) at 100 uM relative to control
[11] = test system: PANC-1; experiment: Potency index, ratio of cisplatin IC50 for test compound IC50 for cytotoxicity against human PANC-1 cells assessed as inhibition of cell growth incubated for 24 hrs by MTT assay; format: functional
[12] = test system: PANC-1; experiment: Induction of apoptosis in human PANC-1 cells assessed as activation of caspase-3 by measuring caspase-3 positive cells at IC50 incubated for 24 hrs by flow cytometry analysis (reference value: 1.8%); format: functional
[13] = test system: PANC-1; experiment: Inhibition of DNA synthesis in human PANC-1 cells at IC50/4 to IC50 concentration incubated for 24 hrs by BrdU incorporation assay; format: functional, cell-based
[14] = test system: PANC-1; experiment: Induction of apoptosis in human PANC-1 cells assessed as total cell viability at IC50 incubated for 24 hrs by annexin V-FITC/PI staining based flow cytometry analysis (reference value: 84.4%); format: functional
[15] = test system: PANC-1; experiment: Induction of mitochondrial membrane potential loss in human PANC-1 cells assessed as depolarized cells at IC50 incubated for 24 hrs by JC-1 staining based flow cytometry assay (reference value: 5%); format: functional
[16] = test system: PANC-1; experiment: Induction of apoptosis in human PANC-1 cells assessed as late apoptotic cells at IC50 incubated for 24 hrs by annexin V-FITC/PI staining based flow cytometry analysis (reference value: 0.2%); format: functional
[17] = test system: PANC-1; experiment: Induction of apoptosis in human PANC-1 cells assessed as activation of caspase-3 by measuring caspase-3 negative cells at IC50 incubated for 24 hrs by flow cytometry analysis (reference value: 98.5 %); format: functional
[18] = test system: PANC-1; experiment: Induction of morphological changes in human PANC-1 cells assessed as cell shrinkage at 13.58 uM incubated for 24 hrs by acridine orange/ethidium bromide staining based fluorescence microscopic analysis; format: functional
[19] = test system: PANC-1; experiment: Induction of mitochondrial membrane potential loss in human PANC-1 cells assessed as polarized cells at IC50 incubated for 24 hrs by JC-1 staining based flow cytometry assay (reference value: 92%); format: functional
[20] = test system: PANC-1; experiment: Induction of morphological changes in human PANC-1 cells assessed as chromatin condensation at 13.58 uM incubated for 24 hrs by acridine orange/ethidium bromide staining based fluorescence microscopic analysis; format: functional, cell-based
[21] = test system: PANC-1; experiment: Induction of morphological changes in human PANC-1 cells assessed as formation of apoptotic bodies at 13.58 uM incubated for 24 hrs by acridine orange/ethidium bromide staining based fluorescence microscopic analysis; format: functional, cell-based
[22] = test system: PANC-1; experiment: Induction of apoptosis in human PANC-1 cells assessed as early apoptotic cells at IC50 incubated for 24 hrs by annexin V-FITC/PI staining based flow cytometry analysis (reference value: 0%); format: functional

Sequence of Cathepsin D (Homo sapiens) (P07339 65-162 limits assumed): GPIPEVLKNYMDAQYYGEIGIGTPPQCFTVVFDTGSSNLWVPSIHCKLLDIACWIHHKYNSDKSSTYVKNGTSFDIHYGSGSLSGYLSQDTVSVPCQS
Sequence of Cathepsin D (Homo sapiens) (P07339 169-412 limits assumed): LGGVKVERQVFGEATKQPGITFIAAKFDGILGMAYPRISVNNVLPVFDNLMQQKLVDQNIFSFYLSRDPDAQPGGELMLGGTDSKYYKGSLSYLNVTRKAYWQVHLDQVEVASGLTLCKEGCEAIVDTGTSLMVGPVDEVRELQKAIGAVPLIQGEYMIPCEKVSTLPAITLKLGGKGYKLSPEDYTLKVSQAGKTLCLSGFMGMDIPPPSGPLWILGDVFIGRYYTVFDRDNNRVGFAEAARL
Sequence of Procathepsin L (Homo sapiens) (P07711 114-333 limits assumed): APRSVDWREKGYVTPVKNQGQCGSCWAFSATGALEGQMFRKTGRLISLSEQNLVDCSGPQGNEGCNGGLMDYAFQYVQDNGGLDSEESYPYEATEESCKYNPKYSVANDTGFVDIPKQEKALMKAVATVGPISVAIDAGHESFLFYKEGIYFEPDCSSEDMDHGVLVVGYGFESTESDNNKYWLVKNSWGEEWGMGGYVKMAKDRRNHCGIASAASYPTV

inhibition [2]	inhibition [7]	inhibition [10] [%]	SMILES	IC50 at 24 h [1] [µM]	IC50 at 24 h [3] [µM]	IC50 [4] [µM]	IC50 [5] [µM]	selectivity ratio [6]	selectivity ratio [8]	also measured
inactive	inactive	–	CC(=O)Nc1ccc(/C=C2\Cc3cc4c(cc3C2=O)OCO4)cc1	> 1560	57	160	115	> 13.5	–	–
–	inactive	–	O=C1/C(=C/c2ccc(-n3ccnc3)cc2)Cc2cc3c(cc21)OCO3	> 1510	153	71.1	132	> 11.4	2.16	inhibition [9]: 24.8%
inactive	inactive	–	O=C1/C(=C/c2ccc(-n3cncn3)cc2)Cc2cc3c(cc21)OCO3	> 1510	> 1510	13.6	64.9	> 23.3	> 111	Ratio IC50 [11]: 3; Activity [12]: 9.1%; inhibition [13]: inactive; Activity [14]: 94%; Activity [15]: 58.6%; Activity [16]: 0.4%; Activity [17]: 93.5%; Activity [18]: Active; Activity [19]: 29.5%; Activity [20]: Active; Activity [21]: Active; Activity [22]: 0.1%

Further lines, the compound ahead of its results:

SMILES	inhibition [2]	inhibition [7]	inhibition [10] [%]	IC50 at 24 h [1] [µM]	IC50 at 24 h [3] [µM]	IC50 [4] [µM]	IC50 [5] [µM]	selectivity ratio [6]	selectivity ratio [8]	also measured
CN1CCN(c2ccc(/C=C3\Cc4cc5c(cc4C3=O)OCO5)cc2)CC1	inactive	–	26	> 1380	> 1380	156	57.9	> 23.8	> 8.82	–
O=C1/C(=C/c2ccc(N3CCCCC3)cc2)Cc2cc3c(cc21)OCO3	inactive	–	39.1	< 11.2	1180	360	16.3	–	3.28	–
O=C1/C(=C/c2ccc(N3CCOCC3)cc2)Cc2cc3c(cc21)OCO3	inactive	–	34.9	> 1430	1210	219	55.8	> 25.6	5.52	–
